pIC50: −log10 of the molar value. Values joined by “and” are separate entries in the source; they are usually repeats but may differ in a detail not shown here. Identical values can stand only once.
Test system: 857933-349-R-J2-PDC complex spheroids, viability
Assay: Anticancer human tumor 857933-349-R-J2-PDC patient-derived colon adenocarcinoma cell line growth inhibition [GQUAD]
Conditions: for viability, T/C: stronger effect = lower value
Text: DNA G-quadruplex Stabilizer Agents in Combinations in Complex Spheroids
A high-throughput screen of multi-cell type tumor spheroids was designed to identify active combinations of DNA G-quadruplex stabilizer agents and targeted small molecules. Complex spheroids include a stromal component modeled by human endothelial cells (HUVEC) and fibroblasts modeled by human mesenchymal stem cells (MSCs). The concentration ranges selected for each drug and investigational agent were based upon clinically achievable concentrations if the clinical Cmax of the agent was known.
Compounds. The drugs and investigational agents: pidnarulex (CX-5461; NSC782164), APTO-253 (NSC789042), BRACO-19 (NSC847499), peposertib (NSC802822), ceralasertib (NSC780249), elimusertib (NSC800525), camonsertib (NSC841442), AZD-1390 (NSC803789), olaparib (NSC753686), talazoparib (NSC767125), ART-558 (NSC835418), sotorasib (NSC818433), MRTX-1133 (NSC836407), SN-38 (NSC673596), topotecan (NSC609699), etoposide (NSC141540), doxorubicin (NSC123127), gemcitabine (NSC613327), 5-fluorouracil (NSC19893), paclitaxel (NSC125973), vemurafenib (NSC761431), panobinostat (NSC761190), R-306465 (JNJ-16241199; NSC773264), adavosertib (NSC754352), TP-3654 (NSC805149), carboplatin (NSC241240), KSQ-4279 (NSC840948), and staurosporine (NSC755774) were obtained from the National Cancer Institute (NCI) Developmental Therapeutics Program Chemical Repository (34). The FDA-approved anticancer drug set is available from the NCI Developmental Therapeutics Program. […] The stock solutions were prepared in dimethyl sulfoxide (DMSO, Sigma-Aldrich, St. Louis, MO, cat. D2650) at 800-fold the tested concentration and stored at -70 degrees C prior to their use. All drugs and investigational agents were tested over a range starting from a high concentration at or near the clinical Cmax and decreasing in half-log increments. If the clinical Cmax for an agent had not been determined, the highest concentration tested was 10 microM.
2.3 Cell Culture. All cells were maintained in an incubator at 37 degrees C and 5% CO2 with 95% humidity. The PDC lines were cultured according to standard operating procedures established by the NCI PDMR. All PDCs were thawed and cultured in Matrigel-coated flasks prepared with a working solution of 1X Ham's F-12 nutrient mix, without supplementation (Invitrogen, cat. 11765054), 100 U/mL penicillin-streptomycin (Invitrogen, cat. 15140122), and 2.5% Matrigel (Corning Inc., cat. 354248) for the first three passages. The 857933-349-R-J2-PDC line was cultured in 6C/Colon 1B media, which includes advanced DMEM/F-12 (Thermo Fisher Scientific, cat. 12634028), 10 mM HEPES (Thermo Fisher Scientific, cat. 15630080), 1X GlutaMAX supplement (Thermo Fisher Scientific, cat. 35050061), 0.1 mg/mL primocin (InvivoGen, cat. ant-pm-2), 10% defined fetal bovine serum, heat inactivated (HyClone Laboratories Inc., cat. SH30070.03HI), 50% L-WRN conditioned media (ATCC, cat. CRL-3276), 1.25 mM N-Acetyl-L-cysteine (Sigma-Aldrich, cat. A9165), 10 mM nicotinamide (Sigma-Aldrich, cat. N0636), 1X B-27 supplement (Thermo Fisher Scientific, cat. 17504044), 1X N-2 supplement (Thermo Fisher Scientific, cat. 17502048), 10 microM Y-27632 dihydrochloride (Tocris Bioscience, cat. 1254), and 50 ng/mL human EGF recombinant protein (Thermo Fisher Scientific, cat. PHG0311). The 485176-168-R4-J1-PDC line was cultured in Panc media, which includes all 6C/Colon 1B media components plus 100 ng/mL human FGF-10 (Thermo Fisher Scientific, cat. 100-26), 500 nM SB-431542 (Selleckchem, cat. S1067), and gastrin (Tocris, cat. 3006).
[…]

[1] = curve of first compound, second compound 0.0316 µM
[2] = curve of first compound, second compound 0.1 µM
[3] = curve of first compound, second compound 0.316 µM
[4] = curve of first compound, second compound 1 µM
[5] = curve of first compound, second compound 3.16 µM
[6] = curve of first compound, second compound 10 µM
[7] = second compound 0.0316 µM, first compound 0.0316 µM
[8] = second compound 0.0316 µM, first compound 0.1 µM
[9] = second compound 0.0316 µM, first compound 0.316 µM
[10] = second compound 0.0316 µM, first compound 1 µM
[11] = second compound 0.0316 µM, first compound 3.16 µM
[12] = second compound 0.0316 µM, first compound 10 µM
[13] = second compound 0.1 µM, first compound 0.0316 µM
[14] = second compound 0.1 µM, first compound 0.1 µM
[15] = second compound 0.1 µM, first compound 0.316 µM
[16] = second compound 0.1 µM, first compound 1 µM
[17] = second compound 0.1 µM, first compound 3.16 µM
[18] = second compound 0.1 µM, first compound 10 µM
[19] = second compound 0.316 µM, first compound 0.0316 µM
[20] = second compound 0.316 µM, first compound 0.1 µM
[21] = second compound 0.316 µM, first compound 0.316 µM
[22] = second compound 0.316 µM, first compound 1 µM
[23] = second compound 0.316 µM, first compound 3.16 µM
[24] = second compound 0.316 µM, first compound 10 µM
[25] = second compound 1 µM, first compound 0.0316 µM
[26] = second compound 1 µM, first compound 0.1 µM
[27] = second compound 1 µM, first compound 0.316 µM
[28] = second compound 1 µM, first compound 1 µM
[29] = second compound 1 µM, first compound 3.16 µM
[30] = second compound 1 µM, first compound 10 µM
[31] = second compound 3.16 µM, first compound 0.0316 µM
[32] = second compound 3.16 µM, first compound 0.1 µM
[33] = second compound 3.16 µM, first compound 0.316 µM
[34] = second compound 3.16 µM, first compound 1 µM
[35] = second compound 3.16 µM, first compound 3.16 µM
[36] = second compound 3.16 µM, first compound 10 µM
[37] = second compound 10 µM, first compound 0.0316 µM
[38] = second compound 10 µM, first compound 0.1 µM
[39] = second compound 10 µM, first compound 0.316 µM
[40] = second compound 10 µM, first compound 1 µM
[41] = second compound 10 µM, first compound 3.16 µM
[42] = second compound 10 µM, first compound 10 µM
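Further: spheroids exposed to compounds for one week before readout.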
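Wherever viability, T/C is given: percent viability relative to vehicle DMSO wells taken as 100%.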

In the case of `C=CCn1c(=O)c2cnc(Nc3ccc(N4CCN(C)CC4)cc3)nc2n1-c1cccc(C(C)(C)O)n1` + Cc1cnc(CNC(=O)c2c(=O)c3ccc(N4CCCN(C)CC4)nc3n3c2sc2ccccc23)cn1, the pIC50 [1] was 6.16, the pIC50 [2] was 6.58 and the pIC50 [3] was greater than 7.50. It also gave a pIC50 [4] greater than 7.50, a pIC50 [5] greater than 7.50 and a pIC50 [6] greater than 7.50. It also gave a viability, T/C [7] of 92.5%, a viability, T/C [8] of 77.4% and a viability, T/C [9] of 76.8%. The viability, T/C [10] was 38.5%, the viability, T/C [11] was 7.81% and the viability, T/C [12] was 10.4%. For the same molecule, the viability, T/C [13] was 53.7%, the viability, T/C [14] was 64.7% and the viability, T/C [15] was 42.7%. For the same molecule, the viability, T/C [16] was 32%, the viability, T/C [17] was 4.33% and the viability, T/C [18] was 7.51%. It also gave a viability, T/C [19] of 19.5%, a viability, T/C [20] of 21.2% and a viability, T/C [21] of 11.9%. The viability, T/C [22] was 5.37%, the viability, T/C [23] was 2.1% and the viability, T/C [24] was 3.41%. The viability, T/C [25] was 3.56%, the viability, T/C [26] was 3.34% and the viability, T/C [27] was 2.67%. The viability, T/C [28] was 2.03%, the viability, T/C [29] was 1.76% and the viability, T/C [30] was 2.24%. It also gave a viability, T/C [31] of 2.07%, a viability, T/C [32] of 2.26% and a viability, T/C [33] of 2.31%. For the same molecule, the viability, T/C [34] was 1.3%, the viability, T/C [35] was 0.68% and the viability, T/C [36] was 1.5%. It also gave a viability, T/C [37] of 0.17%, a viability, T/C [38] of 0.27% and a viability, T/C [39] of 0.23%. The viability, T/C [40] was 0.2%, the viability, T/C [41] was 0.19% and the viability, T/C [42] was 0.22%.
With `C=CC(=O)N1CCN(c2nc(=O)n(-c3c(C)ccnc3C(C)C)c3nc(-c4c(O)cccc4F)c(F)cc23)C(C)C1` (stereo unspecified) + Cc1[nH]c2ccc(F)cc2c1-c1nc2c3cccnc3c3ncccc3c2[nH]1 the pIC50 [1] was less than 5.00, the pIC50 [2] was less than 5.00 and the pIC50 [3] was less than 5.00. The pIC50 [4] was less than 5.00, the pIC50 [5] was less than 5.00 and the pIC50 [6] was less than 5.00. The viability, T/C [7] was 102%, the viability, T/C [8] was 106% and the viability, T/C [9] was 96.7%. For the same molecule, the viability, T/C [10] was 102%, the viability, T/C [11] was 109% and the viability, T/C [12] was 86%. The viability, T/C [13] was 98.9%, the viability, T/C [14] was 101% and the viability, T/C [15] was 96.5%. It also gave a viability, T/C [16] of 104%, a viability, T/C [17] of 103% and a viability, T/C [18] of 93.4%. The viability, T/C [19] was 95.1%, the viability, T/C [20] was 100% and the viability, T/C [21] was 101%. For the same molecule, the viability, T/C [22] was 97.4%, the viability, T/C [23] was 104% and the viability, T/C [24] was 89%. It also gave a viability, T/C [25] of 101%, a viability, T/C [26] of 106% and a viability, T/C [27] of 96.3%. The viability, T/C [28] was 104%, the viability, T/C [29] was 108% and the viability, T/C [30] was 89.2%. For the same molecule, the viability, T/C [31] was 99%, the viability, T/C [32] was 110% and the viability, T/C [33] was 91.3%. For the same molecule, the viability, T/C [34] was 99%, the viability, T/C [35] was 104% and the viability, T/C [36] was 95.3%. The viability, T/C [37] was 102%, the viability, T/C [38] was 98.2% and the viability, T/C [39] was 88.2%. For the same molecule, the viability, T/C [40] was 92.7%, the viability, T/C [41] was 99% and the viability, T/C [42] was 84.7%.
`C=CCn1c(=O)c2cnc(Nc3ccc(N4CCN(C)CC4)cc3)nc2n1-c1cccc(C(C)(C)O)n1` was tested, and the viability, T/C (compound 0.0316 µM) was 102% and 105% and 106%, the viability, T/C (compound 0.1 µM) was 99.4% and 100% and 96.3% and the viability, T/C (compound 0.316 µM) was 95.1% and 97.1% and 97.4%. The viability, T/C (compound 1 µM) was 66.4% and 72.8% and 47.7%, the viability, T/C (compound 3.16 µM) was 26.8% and 27.4% and 8.15% and the viability, T/C (compound 10 µM) was 28.5% and 27% and 10.6%. For the same molecule, the pIC50 (curve of compound) was 5.79 and 5.74 and 6.02.
